This passage reports TGI and GI50 results from PubChem BioAssay (NCI).

Some test systems named below: CCRF-CEM leukemia; COLO 205 colon; DU-145 prostate; MOLT-4 leukemia; NCI-H23 lung; NCI-H460 lung; NCI/ADR-RES ovarian; SF-268 CNS; SNB-19 CNS; SW-620 colon.
What all share (experiment): NCI anticancer screen, dose series, 48 h

Molecules are shown by their SMILES. “And” between values parts separate entries of the source, which are not always exact repeats. Equal values may be shown once.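 Where inhibition never reached the appropriate level, the endpoint shown equals the highest concentration tested. Otherwise, values were interpolated linearly from a five-concentration, 48-hour dose response in 96-well plates. GI50: concentration for 50% inhibition of growth. TGI: total growth inhibition.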

On to `O=C(O)c1cscc1Cc1cccs1`, for which the TGI in the experiment on CCRF-CEM leukemia, in the experiment with COLO 205 colon, with DU-145 prostate, in the experiment on MOLT-4 leukemia, with NCI-H23 lung and with NCI-H460 lung was above 100 µM each time. For the same compound, the TGI with NCI/ADR-RES ovarian, in the experiment with SF-268 CNS, in the experiment on SNB-19 CNS and in the experiment on SW-620 colon was above 100 µM throughout.
Take `O=C(CNc1ncco1)Nc1ccc(S(=O)(=O)c2ccc(NC(=O)CNc3ncco3)cc2)cc1`: the GI50 with CCRF-CEM leukemia is 1.08 µM; with COLO 205 colon, 1.75 µM; with DU-145 prostate, 4.79 µM; in the experiment on MOLT-4 leukemia, 3.13 µM; in the experiment with NCI-H23 lung, 2.46 µM; with NCI-H460 lung it was 2.02 µM. Further, the GI50 is 3.02 µM in the experiment with NCI/ADR-RES ovarian, 1.53 µM in the experiment on SF-268 CNS, 2.88 µM with SNB-19 CNS and 1.75 µM in the experiment with SW-620 colon. The TGI amounted to 5.91 µM in the experiment with CCRF-CEM leukemia; 3.55 µM in the experiment with COLO 205 colon; 16.4 µM in the experiment with DU-145 prostate; 8.45 µM with MOLT-4 leukemia; 9.51 µM in the experiment with NCI-H23 lung; 4.29 µM in the experiment on NCI-H460 lung. The TGI is 19.6 µM in the experiment with NCI/ADR-RES ovarian, 4.54 µM in the experiment with SF-268 CNS, 12.8 µM with SNB-19 CNS and 4.13 µM in the experiment on SW-620 colon.
On to `Cc1nc2cc(Nc3nc(Nc4ccc(F)cc4)nc(N4CCN(C)CC4)n3)ccc2n1Cc1ccccc1`, for which the GI50 is 1.93 µM in the experiment with CCRF-CEM leukemia; 1.94 µM in the experiment with COLO 205 colon; 1.75 µM in the experiment on DU-145 prostate; 2.01 µM with MOLT-4 leukemia; 2 µM in the experiment on NCI-H23 lung; 1.9 µM with NCI-H460 lung. Also, the GI50 with NCI/ADR-RES ovarian was 2.71 µM; with SF-268 CNS, 1.86 µM; in the experiment with SNB-19 CNS, 2.47 µM; in the experiment on SW-620 colon, 1.79 µM. Besides, the TGI turned out to be 5.47 µM in the experiment with CCRF-CEM leukemia; 3.62 µM with COLO 205 colon; 3.37 µM with DU-145 prostate; 5.07 µM in the experiment on MOLT-4 leukemia; 4.5 µM in the experiment on NCI-H23 lung; 3.83 µM in the experiment with NCI-H460 lung. The TGI with NCI/ADR-RES ovarian amounted to 7.6 µM; with SF-268 CNS it was 4.08 µM; with SNB-19 CNS it was 7.42 µM; with SW-620 colon, 3.95 µM.
For `O=C1C(=O)c2ccccc2C(O)=C1CC=C(Cl)Cl`, the GI50 with CCRF-CEM leukemia was 1.57 µM and 4.69 µM; in the experiment with COLO 205 colon, 11.4 µM and 11.2 µM; with DU-145 prostate it was 12 µM and 10.9 µM; in the experiment with MOLT-4 leukemia it was 0.828 µM and 4.68 µM; in the experiment on NCI-H23 lung, 11.6 µM and 12.7 µM; in the experiment with NCI-H460 lung, 1.66 µM. The GI50 is 5.15 µM and 6.97 µM in the experiment with NCI/ADR-RES ovarian; 9.02 µM and 7.72 µM in the experiment with SF-268 CNS; 7.46 µM and 9.74 µM in the experiment on SNB-19 CNS; 6.98 µM and 4.68 µM in the experiment on SW-620 colon. Moreover, the TGI in the experiment on CCRF-CEM leukemia is 52.1 µM and 162 µM and > 100 µM; in the experiment with COLO 205 colon it was 28.8 µM and > 85.5 µM and > 100 µM; with DU-145 prostate, 204 µM and > 100 µM; with MOLT-4 leukemia it was 27.1 µM and 103 µM and > 100 µM; in the experiment with NCI-H23 lung it was 51.3 µM and 154 µM and 99.1 µM; in the experiment with NCI-H460 lung it was 49.8 µM and 79.1 µM and 25.5 µM. Moreover, the TGI with NCI/ADR-RES ovarian is 56 µM and 174 µM and > 100 µM; in the experiment with SF-268 CNS, 202 µM and > 100 µM; with SNB-19 CNS, > 90.5 µM and 204 µM and > 100 µM; in the experiment on SW-620 colon, > 80.5 µM and 231 µM and > 100 µM.
Regarding `CCCCCCC#CC#Cc1cccc(=O)o1`, the GI50 with CCRF-CEM leukemia is 0.265 µM; with COLO 205 colon, 9.5 µM; in the experiment on DU-145 prostate it was 3.31 µM; with MOLT-4 leukemia, 2.31 µM; in the experiment on NCI-H23 lung, 0.848 µM; with NCI-H460 lung it was 8.14 µM. The GI50 in the experiment on NCI/ADR-RES ovarian was 2.59 µM; in the experiment on SF-268 CNS, 2.69 µM; in the experiment on SNB-19 CNS it was 25.6 µM; with SW-620 colon, 0.974 µM. The TGI is above 19.8 µM in the experiment with CCRF-CEM leukemia; 20 µM in the experiment on COLO 205 colon; 8.26 µM with DU-145 prostate; above 21 µM in the experiment with MOLT-4 leukemia; 2.25 µM in the experiment on NCI-H23 lung; 47.9 µM in the experiment with NCI-H460 lung. Besides, the TGI in the experiment on NCI/ADR-RES ovarian came out at 15.7 µM; in the experiment with SF-268 CNS it was 11.9 µM; in the experiment with SNB-19 CNS, 45.9 µM; in the experiment with SW-620 colon, 2.78 µM.
As to `C(=C\c1nccc2c1[nH]c1ccccc12)/c1ccccc1`, the GI50 in the experiment on CCRF-CEM leukemia was 2.1 µM; in the experiment on COLO 205 colon, 1.56 µM; in the experiment on DU-145 prostate, 3.5 µM; with MOLT-4 leukemia it was 2.84 µM; in the experiment on NCI-H23 lung, 3.78 µM; with NCI-H460 lung it was 3.28 µM. In addition, the GI50 in the experiment on NCI/ADR-RES ovarian was 3.1 µM; in the experiment with SF-268 CNS, 5.23 µM; in the experiment with SNB-19 CNS it was 4.4 µM; with SW-620 colon, 2.39 µM. Also, the TGI with CCRF-CEM leukemia is 6.03 µM; with COLO 205 colon, 3.62 µM; with DU-145 prostate it was 12.3 µM; in the experiment on MOLT-4 leukemia, 22.3 µM; with NCI-H23 lung, above 100 µM; in the experiment with NCI-H460 lung it was 13.7 µM. Also, the TGI in the experiment on NCI/ADR-RES ovarian was 20.3 µM; in the experiment on SF-268 CNS it was above 100 µM; in the experiment with SNB-19 CNS, 48.4 µM; in the experiment with SW-620 colon, 18.1 µM.
For `COc1cc(NCC2COc3c(ccc(OC)c3OC)C2=O)c([N+](=O)[O-])cc1OC` (stereo not given), the TGI in the experiment on CCRF-CEM leukemia, with COLO 205 colon, in the experiment with DU-145 prostate, in the experiment on MOLT-4 leukemia, with NCI-H23 lung and in the experiment with NCI-H460 lung was above 100 µM in each case. Moreover, the TGI in the experiment on NCI/ADR-RES ovarian, in the experiment with SF-268 CNS, with SNB-19 CNS and with SW-620 colon was above 100 µM each time.
Regarding `COc1cc(C2=NN(c3ccc(S(N)(=O)=O)cc3)C(c3ccc(Cl)cc3)C2)cc(OC)c1OC` (stereo not given), the GI50 is 4.81 µM with CCRF-CEM leukemia; 3.52 µM with COLO 205 colon; 9.78 µM with DU-145 prostate; 4.81 µM in the experiment on MOLT-4 leukemia; 5.72 µM in the experiment with NCI-H23 lung; 3.95 µM in the experiment on NCI-H460 lung. The GI50 was 3.76 µM with NCI/ADR-RES ovarian, 6.86 µM in the experiment on SF-268 CNS, 5.48 µM in the experiment on SNB-19 CNS and 4.49 µM with SW-620 colon. Besides, the TGI was above 100 µM in the experiment on CCRF-CEM leukemia; 12.2 µM in the experiment on COLO 205 colon; above 100 µM in the experiment on DU-145 prostate; above 100 µM in the experiment on MOLT-4 leukemia; above 100 µM with NCI-H23 lung; above 100 µM in the experiment on NCI-H460 lung. Also, the TGI in the experiment with NCI/ADR-RES ovarian, in the experiment with SF-268 CNS, in the experiment with SNB-19 CNS and in the experiment with SW-620 colon was above 100 µM each time.
